Results from patent publication US20080124385A1, “Methods for Transmembrane Treatment and Prevention of Otitis Media” (Piedmont Pharmaceuticals,LLC., priority 2004, published 2008).

Test system: Haemophilus influenzae
Assay: Chinchilla model of otitis media (middle ear inoculated with Haemophilus influenzae)
Format: in vivo, Chinchilla langer
Details: oral gavage, 20 mg/kg BID for 6 days; 3 animals/group; positive control
Method: To establish and evaluate the animal model, each chinchilla was inoculated with Haemophilus influenzae directly into the middle ear of each ear by transbullar injection at a concentration of 100 cfu in a volume of 0.2 mL. Each chinchilla was given an otoscope ear exam prior to being placed on study. Dosing with a composition of the invention or control oral amoxicillin began approximately 48 hours after the bacterial inoculation. All animals were administered Buprenorphine 0.05 mg/kg twice a day subcutaneously for analgesia for the duration of the study.
At the end of the dosing period (8 days after bacterial inoculation), each animal was euthanized, their ear canals washed with saline, and examined. In particular, samples from the middle ear from each chinchilla were collected. One ear sample was cultured overnight per laboratory procedures. Approximately 24 hours after the samples plated out, they were counted and the colony forming units (cfu) recorded.
The positive control article (amoxicillin) was administered orally by gavage to three chinchillas twice per day for 6 days, approximately 8 hours apart. 2, 4 or 6 drops of ofloxacin 0.3% liposome formulation or ciprofloxacin 0.3% liposome formulation were administered to two groups of three chinchillas each as a maximal feasible dose for these animals.

## CC1(C)S[C@@H]2[C@H](NC(=O)[C@H](N)c3ccc(O)cc3)C(=O)N2[C@H]1C(=O)O [Amoxicillin, amoxicillin]
  Active infection present after 6 days: No active infection present in any animal
